Data on three compounds can be found in ChEMBL document CHEMBL4808170, “Structure-Based Design of Potent and Orally Active Isoindolinone Inhibitors of MDM2-p53 Protein-Protein Interaction” (J Med Chem, 2021).

For orientation: half-life means the time needed for the level to fall by half in the phase considered. What is called GI50 is the concentration that inhibits growth by half. A low value points to greater sensitivity of the cells. In general, bioavailability refers to dose-corrected exposure relative to a reference, in per cent. Low values mean poor availability, high ones good availability. Usually CL/F stands for clearance divided by bioavailability, as obtained after extravascular dosing. One may read the T/C as the ratio of treated to control. As usually defined, the chromatographic logD is lipophilicity estimated from chromatographic retention. A higher chromatographic logD goes with higher lipophilicity. The term inhibition denotes the change of the read-out against control, counted positive when it falls. What is called IC50 is the point on the concentration scale where inhibition reaches its midpoint. Usually clearance stands for the volume of plasma or blood freed of the substance per unit of time. Lower therefore signals inefficient removal.

Data set [1] can be described thus: Drug metabolism in mouse liver microsomes assessed as metabolite rac-1-(((2-(4-chlorobenzyl)-1-(4-chlorophenyl)-5-(2-hydroxypropan-2-yl)-3-oxoisoindolin-1-yl)oxy)methyl)cyclopropane-1-carboxylic acid formation at 10 uM measured up to 40 mins by LC-MS analysis. Type of data set: ADME, Microsome. A general note: Liver microsomes are a subcellular fraction often used to study metabolism.

Data set [2] can be described thus: Plasma protein binding in BALB/c mouse incubated for 48 hrs. Type of data set: ADME, cell-free. The note with it: read-out: PPB (converted).
Data set [3] is described as follows: Drug metabolism in mouse liver microsomes assessed as retention time of metabolite aryl-iminium ion at 10 uM by LC-MS analysis. Type of data set: ADME, Microsome.
A short description of data set [4]: Drug metabolism in mouse liver microsomes assessed as retention time of compound at 10 uM by LC-MS analysis. Type of data set: ADME, Microsome.
Data set [5] is described as follows: Metabolic stability in human liver microsomes assessed as half life at 1 uM. Type of data set: ADME, Microsome.
Data set [6] has as its target T1, CYP3A4 (Homo sapiens, UniProt P08684). Kind of data set: Inhibition of human CYP3A4 expressed in human supersomes assessed as half life in presence of NADPH at 1 uM using midazolam as substrate measured after 40 mins. Type of data set: ADME. The note with it: supersomes expressing human CYP3A4, probe midazolam.
Data set [7] in a line: Antiproliferative activity against human SN40R2 cells derivative of SJSA-1 cells expressing mutant TP53 incubated for 72 hrs by Sulforhodamine B assay. Type of data set: functional. (In SRB staining, fixed cells bind dye roughly in proportion to their protein.)
A short description of data set [8]: Drug metabolism in mouse liver microsomes assessed as retention time of metabolite rac-1-(((2-(4-chlorobenzyl)-1-(4-chlorophenyl)-5-(2-hydroxypropan-2-yl)-3-oxoisoindolin-1-yl)oxy)methyl)cyclopropane-1-carboxylic acid at 10 uM by LC-MS analysis. Type of data set: ADME, Microsome.
Data set [9] can be described thus: Oral bioavailability in BALB/c mouse at 5 mg/kg by HPLC analysis. Type of data set: ADME, organism-based. The note with it: in vivo.
The nature of data set [10]: Metabolic stability in CD1 mouse liver microsomes assessed as half life at 1 uM. Type of data set: ADME, Microsome.
Data set [11] in a line: Plasma protein binding in human incubated for 48 hrs. Type of data set: ADME, cell-free. The note with it: read-out: PPB (converted).
Data set [12] is described as follows: Plasma clearance in BALB/c mouse at 5 mg/kg, po by HPLC analysis. Type of data set: ADME, organism-based.
In data set [13] the test system is SJSA-1. Nature of the data set: Antitumor activity in human SJSA-1 cells […] CD-1 mouse xenograft model assessed as inhibition of tumor growth at 50 mg/kg, po single dose for 7 days relative to control. Type of data set: functional. The note with it: time 7 day. Background: Xenograft models place foreign cells or tissue in a host animal.
Data set [14] can be described thus: Lipophilicity, logD of compound at pH 7.4 by Chromatography. Type of data set: physicochemical. The settings on record: buffer.
For data set [15], the system named is SJSA-1. Kind of data set: Antitumor activity in human SJSA-1 cells […] CD-1 mouse xenograft model assessed as increase in p53 expression in tumor at 50 mg/kg, po single dose measured after 3 hrs by MSD analysis relative to control. Type of data set: functional.
The target of data set [16] is T1, CYP3A4. Nature of the data set: Inhibition of CYP3A4 (unknown origin) using midazolam as substrate in presence of NADPH at 8 uM. Type of data set: ADME. The note with it: probe midazolam.
Data set [17] is described as follows: Toxicity in CD-1 mouse xenografted human SJSA-1 cells assessed as adverse effect at 50 mg/kg, po single dose for 7 days relative to control. Type of data set: organism-based. The settings on record: in vivo, 168 h, time 7 day.
The nature of data set [18]: Oral bioavailability in nonhuman primate at 5 mg/kg by HPLC analysis. Type of data set: ADME, organism-based. The note with it: primates, in vivo.
Data set [19] in a line: Antiproliferative activity against human SN40R2 cells derivative of SJSA-1 cells expressing mutant TP53 at 30 uM incubated for 72 hrs by Sulforhodamine B assay. Type of data set: functional.
The subject of data set [20] is SJSA-1. Nature of the data set: Antiproliferative activity against human SJSA-1 cells expressing wild type TP53 incubated for 72 hrs by Sulforhodamine B assay. Type of data set: functional.
The nature of data set [21]: Inhibition of MDM2/IP3 (unknown origin) protein-protein interaction expressed using TNT T7 coupled reticulocyte lysate system incubated for 90 mins by ELISA.
Data set [22] in a line: In vivo clearance in nonhuman primate at 0.2 mg/kg, iv by HPLC analysis. The settings on record: primates. Type of data set: ADME, organism-based.
The subject of data set [23] is SJSA-1. Kind of data set: Antitumor activity in human SJSA-1 cells […] CD-1 mouse xenograft model assessed as increase in p53 expression in tumor at 50 mg/kg, po single dose measured after 6 hrs by MSD analysis relative to control. Type of data set: functional.
Data set [24] can be described thus: Toxicity in CD-1 mouse xenografted human SJSA-1 cells assessed as change in body weight at 50 mg/kg, po single dose for 7 days relative to control. Type of data set: organism-based. The settings on record: in vivo, 168 h, time 7 day.
The nature of data set [25]: Antiproliferative activity against human SN40R2 cells derivative of SJSA-1 cells expressing mutant TP53 at 50 uM incubated for 72 hrs by Sulforhodamine B assay. Type of data set: functional.

T1 sequence (P08684 whole entry): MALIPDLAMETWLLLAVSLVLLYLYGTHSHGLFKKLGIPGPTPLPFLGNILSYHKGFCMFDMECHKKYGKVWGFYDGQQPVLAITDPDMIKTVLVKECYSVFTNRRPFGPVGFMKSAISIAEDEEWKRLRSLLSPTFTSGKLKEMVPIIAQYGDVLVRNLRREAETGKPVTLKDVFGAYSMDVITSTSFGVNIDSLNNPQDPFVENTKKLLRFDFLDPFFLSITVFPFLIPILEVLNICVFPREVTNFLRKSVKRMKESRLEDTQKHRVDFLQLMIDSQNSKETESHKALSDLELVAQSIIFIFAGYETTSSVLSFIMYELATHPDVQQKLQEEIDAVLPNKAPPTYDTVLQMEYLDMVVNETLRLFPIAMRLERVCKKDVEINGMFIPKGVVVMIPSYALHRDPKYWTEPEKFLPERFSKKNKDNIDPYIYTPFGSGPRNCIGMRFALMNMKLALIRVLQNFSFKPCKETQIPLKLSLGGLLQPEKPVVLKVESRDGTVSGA

As for `CC(C)(O)c1ccc2c(c1)C(=O)N(Cc1ccc(Cl)cc1)[C@@]2(OCC1(CO)CC1)c1ccc(Cl)cc1`, the Drug metabolism entry in data set [1] was “Metabolite_Detected”. For the same compound, the fraction unbound at 48 h is 0.001 in data set [2] and 0.002 in [11]. Also, the Retention_time in [3] was 2.13 min; in data set [4], 2.3 min; in data set [8], 2.12 min. The half-life at 1 µM is 9.5 min in data set [5], below 5 min in data set [6] and below 5 min in [10]. The same compound returned a GI50 in data set [7] of 18000 nM. Moreover, the bioavailability in data set [9] was 6.5%. The compound further registered a CL/F in data set [12] of 25 mL/min/kg.
On to `[2H]C([2H])(O)C1(C([2H])([2H])O[C@]2(c3ccc(Cl)cc3)c3c(F)cc(C(C)(C)O)cc3C(=O)N2Cc2ccc(C#N)cn2)CC1`, for which the figures for the fraction unbound at 48 h in data set [2] and in data set [11] were 0.094 and 0.086, respectively. In addition, the T/C in [13] is 21%. This compound yielded a chromatographic logD in data set [14] of 3.8. Moreover, the “fold change (FC)” value in data set [15] was determined as 3.7; in data set [23] it was 10.3. Besides, the inhibition at 8 µM in data set [16] came out at 46%. Moreover, the half-life at 1 µM was determined as 52 min in [5], 14 min in [6] and 27 min in data set [10]. In addition, the Activity result in data set [17] is reported as “Non-Toxic”; in [19] it was 20%; in [24], “Non-Toxic”. Also, the bioavailability in [18] stood at 31%; in data set [9] it was 46%. Moreover, in [20], the GI50 worked out at 200 nM. The compound also came in with an IC50 in [21] of 3.8 nM. In data set [22], this compound registered a clearance of 11 mL/min/kg. Moreover, the CL/F in [12] came out at 11 mL/min/kg.
For the compound `[2H]C([2H])(O)C1(C([2H])([2H])O[C@]2(c3ccc(Cl)cc3)c3c(F)cc(C(C)(C)O)cc3C(=O)N2Cc2ncc(C#N)cn2)CC1`, the chromatographic logD in data set [14] is 3.9. The compound further displayed a GI50 in [20] of 260 nM. The compound also returned an IC50 in data set [21] of 3.1 nM. Further, in data set [25], the Activity was found to be 19%.
